Target: human PD-L1 / Human PD-1 (Homo sapiens (Human), UniProt Q9NZQ7)
Assay: Enzyme-Linked Immunosorbent Assay (ELISA), human PD-1 binding to plate-coated human PD-L1
Settings: PD-1/PD-L1 ELISA, absorbance at 450 nm
Experimental: Biological Example: Enzyme-Linked Immunosorbent Assay—ELISA
96 Well plates were coated with 1 μg/mL of human PD-L1 (obtained from R&D) in PBS overnight at 4° C. The wells were then blocked with 2% BSA in PBS (W/V) with 0.05% TWEEN-20 for 1 hour at 37° C. The plates were washed 3 times with PBS/0.05% TWEEN-20 and the compounds were serial diluted (1:5) in dilution medium and added to the ELISA plates. Human PD-1 and biotin 0.3 μg/mL (ACRO Biosystems) were added and incubated for 1 hour at 37° C. then washed 3 times with PBS/0.05% TWEEN-20. A second block was performed with 2% BSA in PBS (W/V)/0.05% TWEEN-20 for 10 min at 37° C. and was washed 3 times with PBS/0.05% TWEEN-20. Streptavidin-HRP was added for 1 hour at 37° C. then washed 3 times with PBS/0.05% TWEEN-20. TMB substrate was added and reacted for 20 min at 37° C. A stop solution (2 N aqueous H2SO4) was added. The absorbance was read at 450 nm using a micro-plate spectrophotometer.

Sequence of human PD-L1 / Human PD-1 (Q9NZQ7 19-239): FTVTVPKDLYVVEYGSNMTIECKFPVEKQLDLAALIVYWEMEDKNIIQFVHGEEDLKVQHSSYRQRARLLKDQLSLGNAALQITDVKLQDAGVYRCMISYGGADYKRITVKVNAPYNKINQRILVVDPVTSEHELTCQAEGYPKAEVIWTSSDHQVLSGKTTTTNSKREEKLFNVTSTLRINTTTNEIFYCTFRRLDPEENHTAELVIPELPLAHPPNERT

Structure (SMILES) | IC50
Cc1c(OCCCN2CCC(O)CC2)cccc1-c1cccc2c1CC[C@@H]2Oc1cc(OCc2cncc(C#N)c2)c(CN[C@@](C)(CO)C(=O)O)cc1Cl | ≤ 5 nM
Cc1c(OCCCN2CCC(O)CC2)cccc1-c1cccc2c1CC[C@@H]2Oc1cc(OCCCN2CC[C@@H](O)C2)c(CN[C@@H]2CCCC[C@@H]2O)cc1Cl | ≤ 5 nM
C[C@@](CO)(NCc1cc(Cl)c(OC2CCc3c(-c4cccc(OCCCN5CC(O)C5)c4Cl)cc(F)cc32)cc1OCc1cncc(C#N)c1)C(=O)O (stereo partly shown) | ≤ 5 nM
COc1cc(OC2CCc3c(-c4cccc(OCCCN5CC(O)C5)c4Cl)cccc32)cc(OC)c1CN[C@@](C)(CO)C(=O)O (stereo partly shown) | 5 to 500 nM
N#Cc1cncc(COc2cc(O[C@H]3CCc4c(-c5cccc(OCCCN6CCC(F)CC6)c5Cl)cccc43)c(Cl)cc2CN[C@@H]2CCCC[C@H]2F)c1 | 5 to 500 nM
N#Cc1cncc(COc2cc(O[C@H]3CCc4c(-c5cccc(OCCCn6ccnc6)c5Cl)cccc43)c(Cl)cc2CN[C@@H]2CCCC[C@@H]2O)c1 | 5 to 500 nM
Cc1c(OCCCN2CCC(F)CC2)cccc1-c1cc(F)cc2c1CCC2Oc1cc(OCc2cc(C#N)cc(C#N)c2)c(CN[C@H]2CCC(=O)NC2)cc1Cl (stereo partly shown) | 5 to 500 nM
CCOc1cc(NC2CCc3c(-c4cccc(OCCCN5CCC(C)(F)CC5)c4C)cccc32)c(Cl)cc1CNC[C@@H]1CCC(=O)N1 (stereo partly shown) | 5 to 500 nM
CCOc1cc(O[C@@H]2c3cccc(-c4cccc(OCCCN5CCC(C)(F)CC5)c4C)c3C[C@@H]2F)c(Cl)cc1CNC(C(=O)NS(C)(=O)=O)[C@@H](C)O (stereo partly shown) | 5 to 500 nM
CCOc1cc(NC2CCc3c(-c4cccc(OCCCN5CCCC5(C)C)c4C)cccc32)c(Cl)cc1CNC[C@@H]1CCC(=O)N1 (stereo partly shown) | 5 to 500 nM
